The test system of this assay is Jurkat cells. The experiment in a line: Survival of Jurkat cells after cryopreservation (Trypan blue staining, automated cell counter). The format is cell-based, human. As to conditions: Jurkat cells incubated 24 hours (50-200 μM Compound 2, with or without 200 mM Tre), slowly frozen at −80° C., thawed quickly; FIG. 2. On the procedure: Fully acetylated Tre (Compound 2, FIG. 1) has been synthesized, and incubated with Jurkat cells, a human T-cell line.
In accordance with a method of the present invention, mammalian cells are incubated with a solution containing cell-permeable variants of Tre. Preferably, the incubation time is at least 24 hours, more preferably, 24 to 96 hours, and most preferably about 48 hours. The cells are then frozen, preferably to about −80° C. or colder and thawed. Suitable freezing techniques include freezing the cells slowly, using for example a cryo 1° C. freezing container (“Mr. Frosty”), and freezing the cells quickly, for example, by plunging them into liquid nitrogen. Preferably, the frozen cells are thawed quickly, but they may also be thawed slowly. The % cell survival is measured, preferably using Trypan blue staining and an automated cell counter. […]
Jurkat cells were incubated for 24 hours with each of the following solutions: 0 mM Tre, 200 mM Tre, 50 μM Compound 2, 100 μM Compound 2, 200 μM Compound 2, 50 μM Compound 2+200 mM Tre, 100 μM Compound 2+200 mM Tre, and 200 μM Compound 2+200 mM Tre. The cells were then slowly frozen at −80° C. using a cryo 1° C. freezing container (“Mr. Frosty”) and thawed quickly. % cell survival was measured using Trypan blue staining and automated cell counter.

Take `CC(=O)OCC1OC(OC2OC(COC(C)=O)C(OC(C)=O)C(OC(C)=O)C2OC(C)=O)C(OC(C)=O)C(OC(C)=O)C1OC(C)=O` (stereo not shown) [Compound 2, fully acetylated trehalose]: the “survival after freezing and thawing” value is reported as “improved survival”.

For the origin of these results see US20130331353A1, “CELL-PERMEABLE VARIANTS OF TREHALOSE AND METHODS FOR THE PROTECTION OF LIVING CELLS” (UNION COLLEGE, priority 2012, published 2013).
